According to patent US20040181343A1, “Computer program products and systems for rapidly changing the solution environment around sensors” (Cellectricon AB, priority 2002, published 2004):

Tested on: PC-12 cell
Conditions: cell-scanning speed 250 μm/s
From the text: The flow rate was 3.24 mm/s and the cell scanning speed was 250 μm/s.
In these applications, as discussed above, both the flow rate of the fluids exiting the microchannels and the scan rate of the patch clamped cell are important. […] The width of each microchannel is 100 μm, the thickness is 50 μm, and the intermicrochannel spacing is 25 μm. The procedure used for fabricating the microchannels and for patch clamping are identical to that described in Example 2 (see above). The patch clamped cell used was a PC-12 cell, which was placed between 10 to 20 micrometers away from the outlets of the microchannels. Microchannels 1, 3, 5 and 7 were filled with PBS buffer, while microchannels 2, 4 and 6 were filled with acetylcholine. The flow rate of the fluid streams was 6.8 mm/s.
In a 7-microchannel structure, microchannels 1, 3, 5 and 7 were filled with PBS buffer, whereas microchannels 2, 4, and 6 were filled with 1 μM, 12 μM, and 200 μM nicotine, respectively. The flow rate used was […] and the cell-scanning speed was 250 μm/s. The patch-clamped cell was placed between 10 to 20 μm away from the outlet of the microchannel.

CN1CCCC1c1cccnc1 (stereo not drawn) [nicotine]
Whole-cell current response (1 μM nicotine): barely discernible
Whole-cell current peak (12 μM nicotine): detected with good signal-to-noise ratio
Current peak at 200 μM relative to the peak for 12 μM (200 μM nicotine versus 12 μM): 15 to 20 times
